Assay results reported in ChEMBL document CHEMBL3885881, “DrugMatrix”.

Organism: Rattus norvegicus
Test: DrugMatrix - Regimen: Daily Repeat
Type: toxicity, organism-based, Sprague-Dawley
Design: regimen Daily Repeat, gender Male, age 6-8 weeks
Settings: in vivo, po, route oral GAVAGE, vehicle 100 % SALINE; for ABSOLUTE BASOPHIL / ABSOLUTE EOSINOPHIL / ABSOLUTE LYMPHOCYTE / ABSOLUTE MONOCYTE / ABSOLUTE SEGMENTED NEUTROPHIL / BASOPHIL / EOSINOPHIL / ERYTHROCYTE COUNT / HEMATOCRIT / HEMOGLOBIN / LEUKOCYTE COUNT / MEAN CORPUSCULAR HEMOGLOBIN / MEAN CORPUSCULAR HEMOGLOBIN CONCENTRATION / MEAN CORPUSCULAR VOLUME / MONOCYTE / NEUTROPHIL / NUCLEATED RED BLOOD CELLS / PLATELET COUNT: tissue Blood; for ALANINE AMINOTRANSFERASE / ALBUMIN / ALKALINE PHOSPHATASE / ASPARTATE AMINOTRANSFERASE / BLOOD UREA NITROGEN / CARBON DIOXIDE / CHLORIDE / CHOLESTEROL / CREATINE PHOSPHOKINASE / CREATININE / GLUCOSE / LACTATE DEHYDROGENASE / LIPASE / PHOSPHORUS / POTASSIUM / SODIUM / TOTAL BILIRUBIN / TOTAL PROTEIN / URIC ACID: tissue Plasma
[1] = 40 mg/kg, 120 h, dose level Low, time 5 day
[2] = 195 mg/kg, 72 h, dose level High, time 3 day
[3] = 195 mg/kg, 120 h, dose level High, time 5 day

Oc1ccccc1O [CATECHOL]
ABSOLUTE BASOPHIL [1]: 0 CELLS/uL
ABSOLUTE EOSINOPHIL [1]: 30.67 CELLS/uL
ABSOLUTE LYMPHOCYTE [1]: 8416.67 CELLS/uL
ABSOLUTE MONOCYTE [1]: 0 CELLS/uL
ABSOLUTE SEGMENTED NEUTROPHIL [1]: 952.67 CELLS/uL
BASOPHIL [1]: 0%
EOSINOPHIL [1]: 0.33%
ERYTHROCYTE COUNT [1]: 5.53 x10E6/uL
HEMATOCRIT [1]: 33.83%
HEMOGLOBIN [1]: 13.17 G/DL
LEUKOCYTE COUNT [1]: 9.4 x10E3/uL
MEAN CORPUSCULAR HEMOGLOBIN [1]: 23.8 pg
MEAN CORPUSCULAR HEMOGLOBIN CONCENTRATION [1]: 38.93 G/DL
MEAN CORPUSCULAR VOLUME [1]: 61.13 fL
MONOCYTE [1]: 0%
NEUTROPHIL [1]: 10.67%
NUCLEATED RED BLOOD CELLS [1]: 0 /100WBC
PLATELET COUNT [1]: 1168.67 x10E3/uL
ALANINE AMINOTRANSFERASE [1]: 60.67 u/L
ALBUMIN [1]: 4.17 G/DL
ALKALINE PHOSPHATASE [1]: 318.33 u/L
ASPARTATE AMINOTRANSFERASE [1]: 89.67 u/L
BLOOD UREA NITROGEN [1]: 16 mg/dL
CARBON DIOXIDE [1]: 26 mmol/L
CHLORIDE [1]: 104.67 MEQ/L
CHOLESTEROL [1]: 77.67 mg/dL
CREATINE PHOSPHOKINASE [1]: 225.33 u/L
CREATININE [1]: 0.14 mg/dL
GLUCOSE [1]: 162 mg/dL
LACTATE DEHYDROGENASE [1]: 134.67 u/L
LIPASE [1]: 9 u/L
PHOSPHORUS [1]: 10.23 mg/dL
POTASSIUM [1]: 5.58 MEQ/L
SODIUM [1]: 152 MEQ/L
TOTAL BILIRUBIN [1]: 0.2 mg/dL
TOTAL PROTEIN [1]: 6.03 G/DL
URIC ACID [1]: 0.77 mg/dL
ABSOLUTE BASOPHIL [2]: 0 CELLS/uL
ABSOLUTE EOSINOPHIL [2]: 0 CELLS/uL
ABSOLUTE LYMPHOCYTE [2]: 16294.67 CELLS/uL
ABSOLUTE MONOCYTE [2]: 122.33 CELLS/uL
ABSOLUTE SEGMENTED NEUTROPHIL [2]: 1316.33 CELLS/uL
BASOPHIL [2]: 0%
EOSINOPHIL [2]: 0%
ERYTHROCYTE COUNT [2]: 5.5 x10E6/uL
HEMATOCRIT [2]: 33.6%
HEMOGLOBIN [2]: 13.2 G/DL
LEUKOCYTE COUNT [2]: 17.73 x10E3/uL
MEAN CORPUSCULAR HEMOGLOBIN [2]: 24 pg
MEAN CORPUSCULAR HEMOGLOBIN CONCENTRATION [2]: 39.27 G/DL
MEAN CORPUSCULAR VOLUME [2]: 61.13 fL
MONOCYTE [2]: 0.67%
NEUTROPHIL [2]: 7.33%
NUCLEATED RED BLOOD CELLS [2]: 0 /100WBC
PLATELET COUNT [2]: 1440 x10E3/uL
ALANINE AMINOTRANSFERASE [2]: 50.67 u/L
ALBUMIN [2]: 4.1 G/DL
ALKALINE PHOSPHATASE [2]: 278.67 u/L
ASPARTATE AMINOTRANSFERASE [2]: 78 u/L
BLOOD UREA NITROGEN [2]: 12.33 mg/dL
CARBON DIOXIDE [2]: 25 mmol/L
CHLORIDE [2]: 100.33 MEQ/L
CHOLESTEROL [2]: 73 mg/dL
CREATINE PHOSPHOKINASE [2]: 460.33 u/L
CREATININE [2]: 0.2 mg/dL
GLUCOSE [2]: 161.33 mg/dL
LACTATE DEHYDROGENASE [2]: 133.67 u/L
LIPASE [2]: 10.67 u/L
PHOSPHORUS [2]: 11.7 mg/dL
POTASSIUM [2]: 6.15 MEQ/L
SODIUM [2]: 140.17 MEQ/L
TOTAL BILIRUBIN [2]: 0.17 mg/dL
TOTAL PROTEIN [2]: 5.9 G/DL
URIC ACID [2]: 1.73 mg/dL
ABSOLUTE BASOPHIL [3]: 0 CELLS/uL
ABSOLUTE EOSINOPHIL [3]: 0 CELLS/uL
ABSOLUTE LYMPHOCYTE [3]: 12717.67 CELLS/uL
ABSOLUTE MONOCYTE [3]: 34 CELLS/uL
ABSOLUTE SEGMENTED NEUTROPHIL [3]: 981.67 CELLS/uL
BASOPHIL [3]: 0%
EOSINOPHIL [3]: 0%
ERYTHROCYTE COUNT [3]: 5.35 x10E6/uL
HEMATOCRIT [3]: 33.67%
HEMOGLOBIN [3]: 13.33 G/DL
LEUKOCYTE COUNT [3]: 13.73 x10E3/uL
MEAN CORPUSCULAR HEMOGLOBIN [3]: 24.93 pg
MEAN CORPUSCULAR HEMOGLOBIN CONCENTRATION [3]: 39.6 G/DL
MEAN CORPUSCULAR VOLUME [3]: 62.9 fL
MONOCYTE [3]: 0.33%
NEUTROPHIL [3]: 7%
NUCLEATED RED BLOOD CELLS [3]: 0 /100WBC
PLATELET COUNT [3]: 1267.33 x10E3/uL
ALANINE AMINOTRANSFERASE [3]: 63.67 u/L
ALBUMIN [3]: 4.47 G/DL
ALKALINE PHOSPHATASE [3]: 326 u/L
ASPARTATE AMINOTRANSFERASE [3]: 93 u/L
BLOOD UREA NITROGEN [3]: 15.33 mg/dL
CARBON DIOXIDE [3]: 27 mmol/L
CHLORIDE [3]: 102.67 MEQ/L
CHOLESTEROL [3]: 74.33 mg/dL
CREATINE PHOSPHOKINASE [3]: 321 u/L
CREATININE [3]: 0.14 mg/dL
GLUCOSE [3]: 145.33 mg/dL
LACTATE DEHYDROGENASE [3]: 130.67 u/L
LIPASE [3]: 10 u/L
PHOSPHORUS [3]: 10.1 mg/dL
POTASSIUM [3]: 6.03 MEQ/L
SODIUM [3]: 151 MEQ/L
TOTAL BILIRUBIN [3]: 0.2 mg/dL
TOTAL PROTEIN [3]: 6.43 G/DL
URIC ACID [3]: 0.73 mg/dL
